Biological target: SMYD2 (Homo sapiens, UniProt Q9NRG4)
Assay: Scintillation Proximity Assay (SPA) for detection of SMYD2 enzymatic inhibition
Assay type: biochemical
Parameters: The SMYD2 full length enzyme was produced in-house by expression (with an N-terminal 6× His tag) in E. coli; 6xHis (N); made in house; host or cells: E. coli
Conditions: SMYD2 full length enzyme, p53 Peptide substrate 1.0 μM, 3H-SAM 60 nM; read-out: IC50 [mol/l] (SPA Assay)
Excerpt: 1.1 Scintillation Proximity Assay (SPA) for Detection of SMYD2 Enzymatic Inhibition
SMYD2 inhibitory activities of the compounds described in the present invention were quantified using a scintillation proximity assay (SPA) which measures methylation by the enzyme of the synthetic, biotinylated peptide Btn-Ahx-[…]—Amid×TFA (Biosyntan) derived from p53 and referred to from here on as “p53 Peptide”. The SMYD2 full length enzyme was produced in-house by expression (with an N-terminal 6× His tag) in E. coli and purification by affinity chromatography on a Ni-NTA Sepharose column followed by a size exclusion chromatography step on a Superdex 200 16/60 column (GE Healthcare).
In a typical assay 11 different concentrations of each compound (0.1 nM, 0.33 nM, 1.1 nM, 3.8 nM, 13 nM, 44 nM, 0.15 μM, 0.51 μM, 1.7 μM, 5.9 μM and 20 μM) were tested in duplicate within the same microtiter plate. To this end, 100-fold concentrated compound solutions (in DMSO) were previously prepared by serial dilution (1:3.4) of 2 mM stocks in a clear low volume 384-well source microliter plate (Greiner Bio-One), from which 50 nl of compound solutions were transferred into a white low volume test microtiter plate from the same supplier. Subsequently, 2.5 μl SMYD2 in aqueous assay buffer [50 mM Tris/HCl pH 9.0 (AppliChem), 1 mM dithiothreitol (DTT, Sigma), 0.01% (w/v) bovine serum albumine (BSA, Sigma), 0.0022% (v/v) Pluronic (Sigma)] were added to the compounds in the test plate to a final enzyme concentration of —typically—3 nM (this parameter was adjusted depending on the activity of the enzyme lot in order to be within the linear dynamic range of the assay). The samples were then incubated for 15 min at 22° C. to allow pre-equilibration of the putative enzyme-inhibitor complexes before the start of the methylation reaction, which was initiated by the addition of 2.5 μl 2-fold concentrated solution (in assay buffer) of titriated S-Adenosyl-L-Methionine (3H-SAM, Perkin Elmer, final concentration: 60 nM) and p53 Peptide substrate (final concentration: 1.0 μM). The resulting mixture (5 μl final volume) was shortly centrifuged (2 min., 1500 rpm) and incubated at 22° C. during 30 min. Thereupon the reaction was stopped by adding 3 μl of Streptavidin PS SPA imaging beads (Perkin Elmer, final concentration of 3.12 μg/μl) and “cold” SAM (AK Scientific, 25 μM final concentration) for non-specific binding reduction. Plates containing the stopped reaction were sealed with transparent adhesive foil (Perkin Elmer), centrifuged (2 min., 1500 rpm), and further incubated for —at least—1 h at RT (or overnight at 4° C.) in order to allow the SPA signals to develop. Subsequently, the amount of product was evaluated by measuring the energy transfer from the β-particles emitted by the 3H-labeled substrate to the Europium scintillator co-polymerized in the polystyrene matrix of the PS imaging beads, using the standard settings for this purpose of a Viewlux (Perkin-Elmer) CCD plate imaging device (emission filter 613/55 (IFP). The resulting scintillation counts were taken as indicator for the amount of methylated peptide per well. The data were normalised using two sets of control wells (typically 16 each) for high−(=enzyme reaction with DMSO instead of test compound=0% =Minimum inhibition) and low−(=all assay components without enzyme=100% =Maximum inhibition) SMYD2 activity. IC50 values were calculated by fitting the normalized inhibition data to a 4-parameter logistic equation using the “Screener” analysis software from Genedata.

Chain of SMYD2 (Q9NRG4 whole entry): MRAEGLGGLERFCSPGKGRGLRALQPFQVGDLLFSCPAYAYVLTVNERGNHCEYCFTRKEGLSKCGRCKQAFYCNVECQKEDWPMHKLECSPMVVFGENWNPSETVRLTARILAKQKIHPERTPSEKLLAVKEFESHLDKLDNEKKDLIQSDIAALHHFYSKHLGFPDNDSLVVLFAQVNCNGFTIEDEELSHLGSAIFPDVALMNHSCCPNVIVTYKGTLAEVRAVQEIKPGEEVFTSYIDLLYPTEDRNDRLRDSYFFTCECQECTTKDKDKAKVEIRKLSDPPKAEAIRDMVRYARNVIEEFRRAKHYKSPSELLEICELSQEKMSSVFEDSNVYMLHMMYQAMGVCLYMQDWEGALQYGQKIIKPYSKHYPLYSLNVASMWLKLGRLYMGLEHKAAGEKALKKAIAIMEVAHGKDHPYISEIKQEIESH

Row | Structure (SMILES) | IC50 [nM]
1 | CCN(C(=O)[C@H]1CCCN1)C1CN(/C(=N\C#N)Nc2cc(F)cc(OC(F)(F)F)c2)N=C1c1ccc(Cl)c(Cl)c1 (mixture of isomers) [Example 24, N-[1-{N′-Cyano-N-[3-fluoro-5-(trifluoromethoxy)phenyl]carbamimidoyl}-3-(3,4-dichlorophenyl)-4,5-dihydro-1H-pyrazol-4-yl]-N-ethyl-D-prolinamide] | 65.1
2 | CCN(C(=O)[C@H]1CCCN1)C1CN(/C(=N\C#N)Nc2ccc(F)c(OC)c2)N=C1c1ccc(Cl)c(Cl)c1 (mixture of isomers) [Example 33, N-{1-[N′-Cyano-N-(4-fluoro-3-methoxyphenyl)carbamimidoyl]-3-(3,4-dichlorophenyl)-4,5-dihydro-1H-pyrazol-4-yl}-N-ethyl-D-prolinamide] | 103
3 | CCN(C(=O)[C@H]1CCCN1)C1CN(/C(=N\C#N)Nc2ccc(F)c(OC(F)(F)F)c2)N=C1c1ccc(Cl)c(Cl)c1 (mixture of isomers) [Example 22, N-[1-{N′-Cyano-N-[4-fluoro-3-(trifluoromethoxy)phenyl]carbamimidoyl}-3-(3,4-dichlorophenyl)-4,5-dihydro-1H-pyrazol-4-yl]-N-ethyl-D-prolinamide] | 50.6
4 | CCN(C(=O)[C@H]1CCCN1)C1CN(/C(=N\C#N)Nc2cc(C(F)(F)F)ccc2OC(F)(F)F)N=C1c1ccc(Cl)c(Cl)c1 (mixture of isomers) [Example 30, N-[1-{N′-Cyano-N-[2-(trifluoromethoxy)-5-(trifluoromethyl)phenyl]carbamimidoyl}-3-(3,4-dichlorophenyl)-4,5-dihydro-1H-pyrazol-4-yl]-N-ethyl-D-prolinamide] | 96.6
5 | CCN(C(=O)[C@H]1CCCN1)C1CN(/C(=N\C#N)Nc2cccc(OC(F)(F)F)c2)N=C1c1ccc(Cl)c(Cl)c1 (mixture of isomers) [Example 17, N-[1-{N′-Cyano-N-[3-(trifluoromethoxy)phenyl]carbamimidoyl}-3-(3,4-dichlorophenyl)-4,5-dihydro-1H-pyrazol-4-yl]-N-ethyl-D-prolinamide] | 116
6 | CCN(C(=O)[C@H]1CCCN1)C1CN(/C(=N\C#N)Nc2ccc(F)c(OC(F)F)c2)N=C1c1ccc(Cl)c(Cl)c1 (mixture of isomers) [Example 15, N-[1-{N′-Cyano-N-[3-(difluoromethoxy)-4-fluorophenyl]carbamimidoyl}-3-(3,4-dichlorophenyl)-4,5-dihydro-1H-pyrazol-4-yl]-N-ethyl-D-prolinamide] | 24.4
7 | CCN(C(=O)[C@H]1C[C@@H](F)CN1)C1CN(/C(=N\C#N)Nc2cccc(OC(F)F)c2)N=C1c1ccc(Cl)c(Cl)c1 (mixture of isomers) [Example 4, (4R)-N-[1-{N′-Cyano-N-[3-(difluoromethoxy)phenyl]carbamimidoyl}-3-(3,4-dichlorophenyl)-4,5-dihydro-1H-pyrazol-4-yl]-N-ethyl-4-fluoro-D-prolinamide] | 85.2
8 | CCN(C(=O)[C@@H]1CCC[C@@H]1N)C1CN(/C(=N\C#N)Nc2cccc(OC(F)F)c2)N=C1c1ccc(Cl)c(Cl)c1 (relative stereo) [Example 42, Rel-(1R,2S)-2-amino-N-[1-{N′-cyano-N-[3-(difluoromethoxy)phenyl]carbamimidoyl}-3-(3,4-dichlorophenyl)-4,5-dihydro-1H-pyrazol-4-yl]-N-ethylcyclopentanecarboxamide] | 194
9 | CCN(C(=O)[C@H]1CCCN1)C1CN(/C(=N\C#N)Nc2cccc(CC(F)(F)F)c2)N=C1c1ccc(Cl)c(Cl)c1 (mixture of isomers) [Example 31, N-[1-{N′-Cyano-N-[3-(2,2,2-trifluorelethyl)phenyl]carbamimidayl}-3-(3,4-dichlorophenyl)-4,5-dihydro-1H-pyrazol-4-yl]-N-ethyl-D-prolinamide] | 23.7
10 | CCN(C(=O)[C@H]1C[C@@H](O)CN1)C1CN(/C(=N\C#N)Nc2ccc(F)c(OC(F)F)c2)N=C1c1ccc(Cl)c(Cl)c1 (mixture of isomers) [Example 16, (4R)-N-[1-{N′-Cyano-N-[3-(difluoromethoxy)-4-fluorophenyl]carbamimidoyl}-3-(3,4-dichlorophenyl)-4,5-dihydro-1H-pyrazol-4-yl]-N-ethyl-4-hydroxy-D-prolinamide] | 111
11 | CCN(C(=O)[C@H]1CCCN1)C1CN(/C(=N\C#N)Nc2cc(OC(F)(F)F)ccc2OC)N=C1c1ccc(Cl)c(Cl)c1 (mixture of isomers) [Example 19, N-[1-{N′-Cyano-N-[2-methoxy-5-(trifluoromethoxy)phenyl]carbamimidayl}-3-(3,4-dichlorophenyl)-4,5-dihydro-1H-pyrazol-4-yl]-N-ethyl-D-prolinamide] | 17.2

More lines, now with the values ahead:

Row | IC50 [nM] | Structure (SMILES)
12 | 296 | CCN(C(=O)[C@H]1CCCN1)C1CN(/C(=N\C#N)Nc2ccc(F)c(OC(F)(F)F)c2)N=C1c1ccc(Cl)c(Cl)c1 (single isomer, unassigned) [Example 22.2, N-[1-{N′-Cyano-N-[4-fluoro-3-(trifluoromethoxy)phenyl]carbamimidoyl}-3-(3,4-dichlorophenyl)-4,5-dihydro-1H-pyrazol-4-yl]-N-ethyl-D-prolinamide]
13 | 237 | C[C@]1(C(=O)NC2CN(/C(=N\C#N)Nc3cccc(OC(F)F)c3)N=C2c2ccc(Cl)c(Cl)c2)CCCN1 (single isomer, unassigned) [Example 6.2, N-[1-{N′-Cyano-N-[3-(difluoromethoxy)phenyl]carbamimidoyl}-3-(3,4-dichlorophenyl)-4,5-dihydro-1H-pyrazol-4-yl]-2-methyl-D-prolinamide]
14 | ~20000 | CCN(C(=O)[C@H]1C[C@@H](F)CN1)C1CN(/C(=N\C#N)Nc2cccc(OC(F)F)c2)N=C1c1ccc(Cl)c(C)c1 (single isomer, unassigned) [Example 38.2]
15 | 39.9 | CCN(C(=O)[C@H]1C[C@@H](F)CN1)C1CN(/C(=N\C#N)Nc2cccc(OC(F)F)c2)N=C1c1ccc(Cl)c(Cl)c1 (single isomer, unassigned) [Example 4.1]
16 | 248 | CCN(C(=O)[C@H]1C[C@@H](F)CN1)C1CN(/C(=N\C#N)Nc2cc(F)cc(OC(F)(F)F)c2)N=C1c1ccc(Cl)c(Cl)c1 (single isomer, unassigned) [Example 25.1]
17 | 1540 | CCN(C(=O)[C@H]1CCCN1)C1CN(/C(=N\C#N)Nc2cc(C(F)(F)F)ccc2OC(F)(F)F)N=C1c1ccc(Cl)c(Cl)c1 (single isomer, unassigned) [Example 30.2, N-[1-{N′-Cyano-N-[2-(trifluoromethoxy)-5-(trifluoromethyl)phenyl]carbamimidoyl}-3-(3,4-dichlorophenyl)-4,5-dihydro-1H-pyrazol-4-yl]-N-ethyl-D-prolinamide]
18 | > 20000 | CCN(C(=O)[C@H]1C[C@@H](F)CN1)C1CN(/C(=N\C#N)Nc2cc(F)cc(OC(F)(F)F)c2)N=C1c1ccc(Cl)c(Cl)c1 (single isomer, unassigned) [Example 25.2]
19 | > 20000 | CCN(C(=O)[C@H]1CCCN1)C1CN(/C(=N\C#N)Nc2cccc(OC(F)F)c2)N=C1c1ccc(Cl)c(C)c1 (single isomer, unassigned) [Example 37.2, N-[3-(4-Chloro-3-methylphenyl)-1-{N′-cyano-N-[3-(difluoromethoxy)phenyl]carbamimidoyl}-4,5-dihydro-1H-pyrazol-4-yl]-N-ethyl-D-prolinamide]
20 | 663 | CCN(C(=O)[C@H]1C[C@@H](F)CN1)C1CN(/C(=N\C#N)Nc2cccc(OC(F)F)c2)N=C1c1ccc(Cl)c(Cl)c1 (single isomer, unassigned) [Example 4.2]

— US20180099937A1, “NOVEL ARYL-CYANOGUANIDINE COMPOUNDS” (Bayer Pharma Aktiengesellschaft, priority 2015, published 2018)
